# In US20090306228A1, “ACTIVE AGENT DELIVERY SYSTEMS AND METHODS FOR PROTECTING AND ADMINISTERING ACTIVE AGENTS” (priority 2000, published 2009):
# Values joined by “and” are separate entries in the source; they are usually repeats but may differ in a detail not shown here. Equal entries are not always repeated.
# Legend:
# [1] = In vivo performance of polyglutamic acid-AZT conjugate lot TM-113, plasma AZT by ELISA; set-up: species or system Sprague-Dawley rats; details: for Plasma concentration of individual rats: Rat #1-#5
# Protocol: […]. Polyglutarnic acid-AZT conjugate was given to five rats at a dose containing 15 mg/kg of AZT.
# [2] = in vivo; details: male, Sprague-Dawley, rat, plasma, po
# [3] = after oral administration; cited from earlier work
# [4] = female, Sprague Dawley, rat, in vivo, po
# [5] = molecular target: pepsin (Sus scrofa, UniProt P00791); details: pig, 4 h, pH 1.2
# Chain of pepsin (P00791 60-385): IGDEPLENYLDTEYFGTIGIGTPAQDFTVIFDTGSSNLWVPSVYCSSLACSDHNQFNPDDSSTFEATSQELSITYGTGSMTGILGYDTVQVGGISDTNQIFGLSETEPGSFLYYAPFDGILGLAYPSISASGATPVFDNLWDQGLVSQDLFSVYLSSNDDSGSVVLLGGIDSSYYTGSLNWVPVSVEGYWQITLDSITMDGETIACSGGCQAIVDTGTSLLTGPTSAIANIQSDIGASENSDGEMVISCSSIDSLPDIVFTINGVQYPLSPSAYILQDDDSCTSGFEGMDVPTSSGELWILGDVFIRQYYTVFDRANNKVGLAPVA
# [6] = test system: pancreatin; details: pig, 24 h, pH 7.5
# [7] = test system: protease (type XIV, pronase); details: Streptomyces griseus, 24 h, pH 8.4
# [8] = In vivo performance of polyserine-naltrexone conjugate lot BB-301, serum naltrexone by ELISA; details: oral capsule; for Serum concentration of individual rats: 3.6 mg naltrexone (12.9 mg conjugate BB-301), Rat #1-#5
# [9] = In vivo performance of polyserine-naltrexone conjugate lot BB-272, serum naltrexone by ELISA; details: for Serum concentration of individual rats: 3.6 mg naltrexone (12 mg conjugate BB-272), Rat #1-#4
# Protocol: No excipients were added to the capsules.
# [10] = male, Sprague-Dawley, rat, plasma, po, 15 mg/kg
# [11] = male, Sprague Dawley, rat, in vivo, po, 3.6 mg
smiles,measurement,setting,value
"Cc1cn([C@H]2C[C@H](N=[N+]=[N-])[C@@H](CO)O2)c(=O)[nH]c1=O [AZT, 3′-azido-3′-deoxythymidine]",AUC(0-t),[1]; [10],4040 ng·h/mL
same,Cmax,[1]; [10],2390 ng/mL
same,Tmax,[1]; [10],30 min
same,concentration at 0 h,"[1]; male, Sprague-Dawley, rat, plasma, po, 15 mg/kg, 15 mg/kg of AZT, lot TM-113, 0 hours",7 ng/mL
same,concentration at 0.5 h,"[1]; male, Sprague-Dawley, rat, plasma, po, 15 mg/kg, 15 mg/kg of AZT, lot TM-113, 0.5 hours",2390 ng/mL
same,concentration at 3 h,"[1]; male, Sprague-Dawley, rat, plasma, po, 15 mg/kg, 15 mg/kg of AZT, lot TM-113, 3 hours",223 ng/mL
same,concentration at 5 h,"[1]; male, Sprague-Dawley, rat, plasma, po, 15 mg/kg, 15 mg/kg of AZT, lot TM-113, 5 hours",49 ng/mL
same,concentration at 8 h,"[1]; male, Sprague-Dawley, rat, plasma, po, 15 mg/kg, 15 mg/kg of AZT, lot TM-113, 8 hours",11 ng/mL
same,concentration at 12 h,"[1]; male, Sprague-Dawley, rat, plasma, po, 15 mg/kg, 15 mg/kg of AZT, lot TM-113, 12 hours",36 ng/mL
same,concentration at 24 h,"[1]; male, Sprague-Dawley, rat, plasma, po, 15 mg/kg, 15 mg/kg of AZT, lot TM-113, 24 hours",8 ng/mL
same,time at which AZT plasma levels spiked,"[1]; oral, 15 mg/kg of AZT",0.5 h
same,time for which plasma levels of AZT remained elevated,"[1]; oral, 15 mg/kg of AZT, lot TM-113",< 3 h
same,Plasma concentration of individual rats,"[1]; oral, 15 mg/kg of AZT, lot TM-113, 0 hours, 15 mg/kg",6 ng/mL and 4 ng/mL and 2 ng/mL and 9 ng/mL and 14 ng/mL
same,Plasma concentration of individual rats,"[1]; oral, 15 mg/kg of AZT, lot TM-113, 0.5 hours, 15 mg/kg",4520 ng/mL and 2108 ng/mL and 2657 ng/mL and 1978 ng/mL and 690 ng/mL
same,Plasma concentration of individual rats,"[1]; oral, 15 mg/kg of AZT, lot TM-113, 3 hours, 15 mg/kg",598 ng/mL and 132 ng/mL and 200 ng/mL and 94 ng/mL and 93 ng/mL
same,Plasma concentration of individual rats,"[1]; oral, 15 mg/kg of AZT, lot TM-113, 5 hours, 15 mg/kg",79 ng/mL and 25 ng/mL and 78 ng/mL and 26 ng/mL and 39 ng/mL
same,Plasma concentration of individual rats,"[1]; oral, 15 mg/kg of AZT, lot TM-113, 8 hours, 15 mg/kg",16 ng/mL and 18 ng/mL and 12 ng/mL and 4 ng/mL and 5 ng/mL
same,Plasma concentration of individual rats,"[1]; oral, 15 mg/kg of AZT, lot TM-113, 12 hours, 15 mg/kg",101 ng/mL and 38 ng/mL and 28 ng/mL and 2 ng/mL and 6 ng/mL
same,Plasma concentration of individual rats,"[1]; oral, 15 mg/kg of AZT, lot TM-113, 24 hours, 15 mg/kg",13 ng/mL and 12 ng/mL and 4 ng/mL and 8 ng/mL and 3 ng/mL
same,Tmax,[2],30 min
"CC1OC(OC2C(O)CC(OC3C(O)CC(O[C@H]4CCC5(C)C(CCC6[C@@H]5CC(O)C5(C)[C@@H](C7=CC(=O)OC7)CCC65O)C4)OC3C)OC2C)CC(O)C1O (stereo partly drawn) [Digoxin, digoxin]",time until an effect is evident,[3],1 to 2 h
NS(=O)(=O)c1cc(C(=O)O)c(NCc2ccco2)cc1Cl [Furosemide],9 hour serum level as percent of its 3 hour level,[4],59.8%
"Cc1ccc(C)c(OCCCC(C)(C)C(=O)O)c1 [Gemfibrozil, 5-(2,5-dimethylphenoxy)-2,2-dimethylpentanoic acid]","Stomach (simulator, release of active agent from peptide conjugate)",[5],0%
same,"Intestine (simulator, release of active agent from peptide conjugate)",[6],3.60%
same,Pronase (release of active agent from peptide conjugate),[7],2%
"Nc1ccc(O)c(C(=O)O)c1 [Mesalamine, 5-amino-2-hydroxybenzoic acid]","Stomach (simulator, release of active agent from peptide conjugate)",[5],11%
same,"Intestine (simulator, release of active agent from peptide conjugate)",[6],10%
same,Pronase (release of active agent from peptide conjugate),[7],46%
CCN(CC)CCNC(=O)c1cc(Cl)c(N)cc1OC [Metoclopramide],"Stomach (simulator, release of active agent from peptide conjugate)",[5],0%
same,"Intestine (simulator, release of active agent from peptide conjugate)",[6],95.20%
same,Pronase (release of active agent from peptide conjugate),[7],6.50%
Cc1ncc([N+](=O)[O-])n1CCO [Metronidazole],"Stomach (simulator, release of active agent from peptide conjugate)",[5],20.20%
same,"Intestine (simulator, release of active agent from peptide conjugate)",[6],64.30%
same,Pronase (release of active agent from peptide conjugate),[7],28.90%
O=C1CC[C@@]2(O)[C@H]3Cc4ccc(O)c5c4[C@@]2(CCN3CC2CC2)[C@H]1O5 [Naltrexone],Serum concentration of individual rats,[8]; 0.5 hours,39 ng/mL and 141 ng/mL and 128 ng/mL and 126 ng/mL and 142 ng/mL
same,Serum concentration of individual rats,[8]; 3 hours,91 ng/mL and 62 ng/mL and 44 ng/mL and 30 ng/mL and 46 ng/mL
same,Serum concentration of individual rats,[8]; 5 hours,45 ng/mL and 193 ng/mL and 16 ng/mL and 8 ng/mL and 19 ng/mL
same,Serum concentration of individual rats,[8]; 8 hours,19 ng/mL and 6 ng/mL and 2 ng/mL and 5 ng/mL and 4 ng/mL
same,Serum concentration of individual rats,[8]; 12 hours,3 ng/mL (2×) and 1 ng/mL and 2 ng/mL (2×)
same,Serum concentration of individual rats,[8]; 15 hours,4 ng/mL and 1 ng/mL (2×) and 2 ng/mL (2×)
same,Serum concentration of individual rats,[8]; 24 hours,2 ng/mL (2×) and 1 ng/mL (2×) and 3 ng/mL
same,time at which naltrexone serum levels spiked,"[8]; equal dose, lot BB-301",0.5 h
same,time for which serum levels of naltrexone remained elevated,"[8]; equal dose, lot BB-301",< 8 h
same,concentration at 2 h,[9]; [11],46 ng/mL
same,concentration at 4 h,[9]; [11],11 ng/mL
same,concentration at 6 h,[9]; [11],9 ng/mL
same,concentration at 9 h,[9]; [11],3 ng/mL
same,Serum concentration of individual rats,"[9]; oral capsule, 2 hours",33 ng/mL and 91 ng/mL and 37 ng/mL and 22 ng/mL
same,Serum concentration of individual rats,"[9]; oral capsule, 4 hours",6 ng/mL and 25 ng/mL and 12 ng/mL and 3 ng/mL
same,Serum concentration of individual rats,"[9]; oral capsule, 6 hours",13 ng/mL and 10 ng/mL and 8 ng/mL and 6 ng/mL
same,Serum concentration of individual rats,"[9]; oral capsule, 9 hours",3 ng/mL and 6 ng/mL and 2 ng/mL and 1 ng/mL
same,Serum concentration of individual rats,"[9]; oral capsule, 12 hours",2 ng/mL (2×) and 1 ng/mL
same,Mean serum concentration +/- SD,"[9]; oral capsule, 3.6 mg naltrexone, lot BB-272, 12 hours",1 ± 1 ng/mL
same,time at which serum levels spiked,"[9]; oral capsule, lot BB-272, 2 hours was the first measurement",2 h
